Marks after values point to notes of the source that are not given here.
Experiments:
[1] = test system: Anaerostipes caccae DSM 14662; experiment: MIC against anaerobic bacteria; type: cell-based; details: A. caccae DSM 14662, anaerobic
[2] = test system: Methicillin-resistant S. aureus (MRSA) ClpX; details: read-out: IC50, ClpX ATPase activity; cited from earlier work
[3] = test system: Bacteroides thetaiotaomicron DSM 2079; experiment: MIC against anaerobic bacteria; type: cell-based; details: B. thetaiotaomicron DSM 2079, anaerobic
[4] = test system: Acinetobacter baumannii 2208; experiment: MIC, broth microdilution; type: cell-based; details: A. baumannii 2208
Escherichia coli K12 = experiment: MIC, broth microdilution; type: cell-based; details: E. coli K12
[5] = test system: E. coli nonpathogenic ATCC MG1655; experiment: MIC determination; type: cell-based, Escherichia coli
[6] = test system: Pseudomonas aeruginosa PA01; experiment: MIC, broth microdilution; type: cell-based; details: P. aeruginosa PA01
S. aureus USA 300 JE2 = experiment: MIC, broth microdilution; type: cell-based, Staphylococcus aureus
[7] = test system: Lactobacillus plantarum DSM 20174; experiment: MIC against L. plantarum; type: cell-based; details: L. plantarum DSM 20174
[8] = Simulated intestinal fluid stability; type: in vitro ADME; details: SIF pH 7.60 with pancreatin, 24 h
[9] = test system: Lactobacillus rhamnosus CGMCC 1.3724; experiment: MIC against L. rhamnosus; type: cell-based; details: L. rhamnosus CGMCC 1.3724
S. typhimurium TA100 = details: positive control, TA100, S9−, 2.5 μg/plate

## CC[C@H]1OC(=O)[C@H](C)[C@@H](O[C@H]2C[C@@](C)(OC)[C@@H](O)[C@H](C)O2)[C@H](C)[C@@H](O[C@@H]2O[C@H](C)C[C@H](N(C)C)[C@H]2O)[C@](C)(O)C[C@@H](C)CN(C)[C@H](C)[C@@H](O)[C@]1(C)O [AZM, azithromycin, reference compound]
[1]
  MIC: no susceptibility

## O=C1C2=C(Nc3ccccc3SC2c2cccc(O)c2)c2ccccc21 (stereo not shown) [compound 334, 11-(3-Hydroxyphenyl)-5,11-dihydro-12H-benzo[b]indeno[1,2-e][1,4]thiazepin-12-one]
[2]
  IC50: 0.8 µM

## N#Cc1ccccc1C1Sc2ccccc2NC2=C1C(=O)c1ccccc12 (stereo not shown) [5a, 2-(12-Oxo-11,12-dihydro-5H-benzo[b]indeno[1,2-e][1,4]thiazepin-11-yl)benzonitrile]
[3]
  MIC: completely inactive
[4]
  MIC: inactive
Escherichia coli K12
  MIC: inactive
[5]
  MIC: completely inactive
[6]
  MIC: inactive
[1]
  MIC: completely inactive
S. aureus USA 300 JE2
  MIC: inactive
[7]
  MIC: no antibacterial activity
[8]
  percentage of drug remaining: around 85%
[9]
  MIC: no antibacterial activity

## Sodium azide
S. typhimurium TA100
  number of revertants/plate: 260.70 ± 15.30^e revertants/plate
